Test results taken from patent publication US8227232B2, “Thermostable L-ribose isomerase and method for producing same and use of same” (National University Corporation Kagawa Univeristy, priority 2006, dated 2012).

Legend:
[1] = tested on: thermostable L-ribose isomerase from Raoultella ornithinolytica; assay: Confirmation of enzyme reaction product by HPLC; format: biochemical; details: 50 mM substrate, crude enzyme solution, 40° C., 24 hours
Description: A crude enzyme solution (0.65 U/ml) was recovered after culturing in a culture medium with 0.1% D-lyxose in 2% TSB, at 37° C. for 2 days and ultrasonication for extraction; 150 μl of the crude enzyme solution reacted with 50 mM of a substrate including individual ketose types such as L-ribose, D-fructose, D-tagatose and L-psicose at 40° C. for 24 hours. After reaction, the enzyme was inactivated under heating in hot water for 2 minutes, and centrifuged at 12,000 rpm for 5 minutes to recover the supernatant. Then, about 2 spoonfuls of a desalted resin (mixed and dried at a ratio of IRA411:SKIB=2:1) in a microspatula were added to the resulting supernatant, for mixing under inversion. After one hour, the solution was filtered through a 0.45-μm filter, for high-performance liquid chromatography (HPLC). As the column, Hitachi HPLC column GL-C611 (manufactured by Hitachi Chemical Industry Co., Ltd.) was used; as the detector, a differential refractive meter (L-7490 refractive index detector manufactured by Hitachi Hightech Co., Ltd.) was used. While the column was retained at 60° C., 10^−4 M sodium hydroxide solution as an eluent was used at a flow rate of 1.0 mL/min. The resulting signals were collected and analyzed with a data analysis software (SmartChrom, manufactured by KYA Technologies Co., Ltd.).

[2] = tested on: thermostable L-ribose isomerase derived from Raoultella ornithinolytica; assay: L-ribose isomerase activity assay on various aldose substrates (cysteine/carbazole method); format: biochemical; details: aldose as substrate; for relative activity to the activity on L-ribose: activity on L-ribose designated as 100%
Description: The activity of the L-ribose isomerase of the invention can be assayed as follows. 0.05 ml of 0.05 M glycine-NaOH buffer (pH 9.0), 0.05 ml of 0.05 M L-ribose and the enzyme solution were mixed together to a total volume of 0.5 ml, for the enzyme reaction at 45° C., to generate L-ribulose, which is assayed by the cysteine/carbazole method. One unit of the enzyme activity is designated as the enzyme amount to generate 1 μmol of L-ribulose per one minute.
Using 50 mM L-ribose as a substrate, the enzyme reaction continued at 45° C. for 10 minutes, so that the amount of the generated ketose (L-ribulose) was assayed by the cysteine/carbazole method. As to the temperature stability, the enzyme activity was assayed after 10-min treatment at individual temperatures. As to the optimal pH conditions, the enzyme reaction was performed at 45° C. for 10 minutes in 50 mM acetate buffer (pH 2 to 6), 50 mM sodium phosphate buffer (pH 6 to 8), 50 mM Tris-HCl buffer (pH 8 to 9) or 50 mM glycine-sodium hydroxide buffer (pH 9 to 11), using 50 mM L-ribose as substrate, to assay the amount of a ketose (L-ribulose) generated thereafter by the cysteine/carbazole method (Table 2). The enzyme reaction was done at the composition shown in Table 2 at 45° C. for 10 minutes (Table 3), and the reaction was terminated by adding 50 μl of 10% TCA (trichloroacetic acid). […] After completion of the reaction, absorbance at 540 nm was measured with an ultraviolet/visible spectrophotometer V530 (JASCO Corporation). Additionally, the amount of the enzyme generating 1 μmol L-ribulose per one minute was designated as one unit.
According to the assay method of the activity, the activity of the enzyme was assayed, using various aldose types as substrates. The activities on various aldose types are shown in relative activities to the activity on L-ribose, which is designated as 100%.

Row | SMILES | product generated from the substrate [1] | activity of the enzyme for the substrate (in words) [2] | relative activity to the activity on L-ribose [2] [%]
1 | O=C(CO)[C@@H](O)[C@@H](O)[C@H](O)CO [D-tagatose] | D-tallose is generated | – | –
2 | O=C[C@@H](O)[C@H](O)[C@H](O)[C@H](O)CO [D-altrose] | – | never exerts any activities | –
3 | O=C[C@@H](O)[C@@H](O)[C@@H](O)[C@@H](O)CO [L-allose] | – | exerted activities | 2.2
4 | O=C[C@H](O)[C@H](O)[C@H](O)[C@H](O)CO [D-allose] | – | never exerts any activities | –
5 | O=C[C@@H](O)[C@@H](O)[C@@H](O)CO [L-ribose] | L-ribulose is generated | highest activity | 100
6 | O=C(CO)[C@@H](O)[C@@H](O)[C@@H](O)CO [L-psicose] | L-allose is generated | – | –
7 | O=C[C@H](O)[C@@H](O)[C@H](O)[C@H](O)CO [D-glucose] | – | never exerts any activities | –
8 | O=C[C@@H](O)[C@@H](O)[C@H](O)[C@H](O)CO [D-mannose] | – | exerted activities | –
9 | O=C(CO)[C@@H](O)[C@H](O)[C@H](O)CO [D-fructose] | D-mannose is generated | – | –
10 | O=C[C@@H](O)[C@@H](O)[C@H](O)CO [D-lyxose] | – | exerted activities | 15.3
11 | O=C[C@@H](O)[C@@H](O)[C@@H](O)[C@H](O)CO [D-tallose] | – | exerted activities | 56.9
